Assay type in all cases: biochemical
The target in experiment [1] is JNK1 (Homo sapiens, UniProt P45983). The experiment in a line: JNK1 SPA assay. The conditions noted are these: phosphorylation of GST-c-Jun, 2 μM ATP. As for the experimental part: (§1) JNK1, JNK2, JNK3—SPA Assay
(§2) • 1. Compound is dissolved in DMSO to a convenient concentration and this is diluted in 10% DMSO to a five times concentrate of the desired starting concentration (frequently 1: 100). • 2. 10 μl of 500 mM EDTA is added to alternative wells of the Opti-plate row, which will receive kinase reaction plus DMSO. This creates the negative control. • 3. For the JNK2 and JNK3 assay, compounds are prepared in six 2-fold dilutions with water and each concentration is tested in duplicate. For the JNK1 assay compounds are prepared in four 5-fold dilutions with water which are tested in triplicate. Controls are treated identically. • 4. 20 μl per well of each compound concentration is transferred to an Opti-plate, in duplicate. • 5. 30 μl (JNK2/3 SPA) or 50 μl (JNK1 SPA) of substrate solution (25 mM HEPES pH 7.5, 10 mM magnesium acetate with 3.33 μM ATP (JNK2/3) or 2 μM ATP (JNK1), approximately 7.5 kBq [γ-^33P] ATP, GST-c-Jun, in water) is added to each well. • 6. 50 μl (JNK2/3 SPA) or 30 gl (JNK1 SPA) of kinase solution (JNK in 25 mM HEPES pH 7.5, 10 mM Mg Acetate) is added to each well.
(§3) • 7. The plate is incubated for 30 minutes at room temperature. • 8. 100 μl of bead/stop solution is added to each well (5 mg/ml glutathione-PVT-SPA beads, 40 mM ATP in PBS). • 9. Plates are sealed and incubated for 30 minutes at room temperature, centrifuged for 10 minutes at 2500 g and counted. • 10. The IC50 values are calculated as the concentration of the compound being tested at which the phosphorylation of c-Jun is decreased to 50% of the control value.

The target of experiment [2] is JNK2 (Homo sapiens, UniProt P45984). The experiment in a line: JNK2 SPA assay. The conditions noted are these: phosphorylation of GST-c-Jun, 3.33 μM ATP. Here is the method: as §1, §2, §3
Experiment [3] has as its target JNK3 (Homo sapiens, UniProt P53779). The experiment in a line: JNK3 SPA assay. The settings on record: phosphorylation of GST-c-Jun, 3.33 μM ATP. Here is the method:
as §1, §2, §3

The target of experiment [4] is T1, p38 MAP kinase (Homo sapiens, UniProt Q16539).
T1 construct: purchased Upstate
The experiment in a line: p38 ELISA. The conditions noted are these: phosphorylation of GST-ATF2, 50 μM ATP. Here is the method: Active p38 kinase (100 ng; Upstate) was added to 2 μg GST-ATF2 substrate (NEB) in 250 mM Hepes pH 7.5/100 mM MgAc/50 μM ATP (final) in the presence or absence of compounds in 50 μl. The mixture was incubated at 30° C. for 1 hour, and then diluted with 200 μl PBS-Tween (0.05%). From this, duplicate volumes of 100 μl were added to a Reacti-Bind glutathione coated plate (Pierce) and incubated for 1 hour. After washing 3 times with PBS-Tween (0.05%), rabbit anti-phospho-ATF2 (Thr71) antibody (NEB) was added at 1:500, and incubated for another hour at room temperature. After 3 additional washes with PBS-Tween (0.05%), 100 μl of anti-rabbit IgG alkaline phosphatase-conjugated secondary antibody (Sigma) was added at 1:1000, the reaction was incubated for a further hour, washed 3 times, and then phosphatase substrate (Sigma) was added (100 μl per well; 3 tablets in 5 ml water). After incubation in the dark at 37° C. for 1 hour, the reaction mixture was transferred to a clear 96 well plate, and the absorbance at 405 nm was read. The IC50 values are calculated as the concentration of the compound being tested at which the phosphorylation of ATF2 is decreased to 50% of the control value.

Chain of JNK2 (P45984 whole entry): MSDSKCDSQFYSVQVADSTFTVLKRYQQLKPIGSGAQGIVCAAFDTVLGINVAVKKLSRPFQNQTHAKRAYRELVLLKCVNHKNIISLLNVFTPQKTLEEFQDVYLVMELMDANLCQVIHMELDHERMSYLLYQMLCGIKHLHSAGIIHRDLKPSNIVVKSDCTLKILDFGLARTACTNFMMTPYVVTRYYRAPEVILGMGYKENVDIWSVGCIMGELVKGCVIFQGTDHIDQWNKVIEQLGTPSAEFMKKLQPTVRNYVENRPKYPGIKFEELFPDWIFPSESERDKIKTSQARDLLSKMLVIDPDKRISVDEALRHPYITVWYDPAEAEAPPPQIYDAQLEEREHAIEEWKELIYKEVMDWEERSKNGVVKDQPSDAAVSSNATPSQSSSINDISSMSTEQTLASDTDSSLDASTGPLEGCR
Chain of JNK1 (P45983 whole entry): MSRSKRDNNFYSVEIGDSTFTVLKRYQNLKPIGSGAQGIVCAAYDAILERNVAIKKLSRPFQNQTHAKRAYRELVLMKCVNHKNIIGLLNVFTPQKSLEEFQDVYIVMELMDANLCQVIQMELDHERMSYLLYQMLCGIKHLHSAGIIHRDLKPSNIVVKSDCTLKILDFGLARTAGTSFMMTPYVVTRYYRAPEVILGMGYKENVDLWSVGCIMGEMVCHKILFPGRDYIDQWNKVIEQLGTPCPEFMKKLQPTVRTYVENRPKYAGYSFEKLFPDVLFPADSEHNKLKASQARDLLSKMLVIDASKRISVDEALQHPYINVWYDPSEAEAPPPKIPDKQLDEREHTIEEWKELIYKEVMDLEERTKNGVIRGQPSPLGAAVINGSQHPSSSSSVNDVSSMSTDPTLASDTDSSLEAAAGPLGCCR
Chain of JNK3 (P53779 whole entry): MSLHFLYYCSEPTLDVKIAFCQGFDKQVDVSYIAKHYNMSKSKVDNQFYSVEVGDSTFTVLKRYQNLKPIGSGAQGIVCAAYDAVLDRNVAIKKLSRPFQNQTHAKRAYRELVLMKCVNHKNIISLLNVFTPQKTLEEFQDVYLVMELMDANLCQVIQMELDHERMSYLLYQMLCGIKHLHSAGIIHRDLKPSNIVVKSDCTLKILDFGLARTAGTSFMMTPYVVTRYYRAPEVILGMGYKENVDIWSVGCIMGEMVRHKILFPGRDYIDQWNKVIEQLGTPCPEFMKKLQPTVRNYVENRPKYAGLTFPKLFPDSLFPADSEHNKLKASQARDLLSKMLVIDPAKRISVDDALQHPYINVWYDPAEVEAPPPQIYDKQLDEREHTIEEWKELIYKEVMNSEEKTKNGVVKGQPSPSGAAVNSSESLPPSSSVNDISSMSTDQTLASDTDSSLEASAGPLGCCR
T1 sequence (Q16539 whole entry): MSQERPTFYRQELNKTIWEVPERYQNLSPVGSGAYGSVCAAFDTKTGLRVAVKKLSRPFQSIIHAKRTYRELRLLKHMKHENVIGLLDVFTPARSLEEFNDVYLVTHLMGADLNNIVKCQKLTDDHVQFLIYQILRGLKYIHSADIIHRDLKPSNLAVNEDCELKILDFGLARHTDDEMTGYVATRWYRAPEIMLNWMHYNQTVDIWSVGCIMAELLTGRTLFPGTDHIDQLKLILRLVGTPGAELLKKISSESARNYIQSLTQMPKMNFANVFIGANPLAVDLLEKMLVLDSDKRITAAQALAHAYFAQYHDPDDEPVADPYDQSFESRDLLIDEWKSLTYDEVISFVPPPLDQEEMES

A word on the IC50: it is the concentration that gives 50% inhibition. A higher IC50 goes with weaker potency. Consider `CCCNc1nccc(-c2c(-c3ccc(F)cc3)nc3n2[C@H](COc2ccc4ccccc4n2)CC3)n1`, for which the IC50 is 183 nM in experiment [1], 52 nM in experiment [2], 88 nM in experiment [3] and 270 nM in experiment [4].
`CCCNc1nccc(-c2c(-c3ccc(F)cc3)nc3n2[C@@H](COc2ccc4ccccc4n2)CC3)n1` yielded an IC50 in experiment [3] of 295 nM.
For the molecule `CCCNc1nccc(-c2c(-c3ccc(F)cc3)nc3n2[C@H](Cn2ccc4ccccc42)CC3)n1`, the IC50 in experiment [1] came out at 636 nM; in experiment [2], 250 nM; in experiment [3] it was 91 nM; in experiment [4], 619 nM.
As for `CCCNc1nccc(-c2c(-c3ccc(F)cc3)nc3n2[C@@H](Cn2ccc4ccccc42)CC3)n1`, in experiment [3], half-maximal inhibition (IC50) required 150 nM.
In the case of `CCNc1nccc(-c2c(-c3ccc(F)cc3)nc3n2[C@H](Cn2ccc4cccc(F)c42)CC3)n1`, the IC50 in experiment [1] amounted to 125 nM; in experiment [2], 125 nM; in experiment [3], 61 nM; in experiment [4] it was 696 nM.
With `CCNc1nccc(-c2c(-c3ccc(F)cc3)nc3n2[C@H](COc2ncccn2)CC3)n1`, the IC50 in experiment [1] came to 313 nM; in experiment [2] it was 125 nM; in experiment [3] it was 29 nM; in experiment [4] it was 185 nM.
Regarding `O=C(NC[C@@H]1CCc2nc(-c3ccc(F)cc3)c(-c3ccnc(NC4CCC4)n3)n21)c1ccccc1`, the IC50 in experiment [1] was 412 nM; in experiment [2], 83 nM; in experiment [3] it was 54 nM.
Turning to `Fc1ccc(-c2nc3n(c2-c2ccnc(NC4CCC4)n2)[C@H](COc2ccnc4ccccc24)CC3)cc1`, the IC50 in experiment [1] came to 249 nM; in experiment [2], 114 nM; in experiment [3], 71 nM.
Consider `CCNc1nccc(-c2c(-c3ccc(F)cc3)nc3n2[C@H](COc2ccc4cccc([N+](=O)[O-])c4n2)CC3)n1`, for which the IC50 was found to be 137 nM in experiment [1], 38 nM in experiment [2] and 86 nM in experiment [3].
Consider `Cc1cc(OC[C@@H]2CCc3nc(-c4ccc(F)cc4)c(-c4ccnc(NC5CCC5)n4)n32)c2ccccc2n1`, for which the results for the IC50 in experiment [1], in experiment [2] and in experiment [3] were 78 nM, 30 nM and 25 nM, respectively.
The like results for `Fc1ccc(-c2nc3n(c2-c2ccnc(NC4CCC4)n2)[C@H](CNc2ccccn2)CC3)cc1` were, in that order, 524 nM, 126 nM and 38 nM.
As to `CCNc1nccc(-c2c(-c3ccc(F)cc3)nc3n2[C@H](Cn2cccc2)CC3)n1`, the IC50 was determined as 27 nM in experiment [1], 13 nM in experiment [2], 14 nM in experiment [3] and 59 nM in experiment [4].
In the case of `Fc1ccc(-c2nc3n(c2-c2ccnc(NC4CCC4)n2)[C@H](/C=C/c2cccs2)CC3)cc1`, the concentration for half-maximal inhibition (IC50) amounted to 248 nM in experiment [1] and 53 nM in experiment [3].
Take `Fc1ccc(-c2nc3n(c2-c2ccnc(NC4CCC4)n2)[C@H](Cn2ccnc2)CC3)cc1`: the results for the IC50 in experiment [1] and in experiment [3] were 22 nM and 7 nM, respectively.
With `Fc1ccc(SC[C@@H]2CCc3nc(-c4ccc(F)cc4)c(-c4ccnc(NC5CCC5)n4)n32)cc1`, the figures for the IC50 in experiment [1] and in experiment [3] were 92 nM and 8 nM, respectively.
On to `COc1ccc(CSC[C@@H]2CCc3nc(-c4ccc(F)cc4)c(-c4ccnc(NC5CCC5)n4)n32)cc1`, for which the IC50 is 94 nM in experiment [1], 30 nM in experiment [3] and 148 nM in experiment [4].
In experiment [3], `Fc1ccc(-c2nc3n(c2-c2ccnc(NC4CCC4)n2)[C@H](CC2CCCC2)CC3)cc1` gave an IC50 of 10 nM.
For `CCNc1nccc(-c2c(-c3ccc(F)cc3)nc3n2[C@H](CN2C(=O)CCC2=O)CC3)n1`, half-maximal inhibition in experiment [3] (IC50) was put at 17 nM.
`O=C1CCC(=O)N1C[C@@H]1CCc2nc(-c3ccc(F)cc3)c(-c3ccnc(NC4CCC4)n3)n21`: the results for the IC50 in experiment [1] and in experiment [3] were 60 nM and 6 nM, respectively.
With `COc1ccc(COC[C@@H]2CCc3nc(-c4ccc(F)cc4)c(-c4ccnc(NC5CCC5)c4)n32)cc1`, in experiment [3], the IC50 was found to be 23 nM.
The same measure, in the same setting: the result for `COc1ccc(COC[C@H]2CCc3nc(-c4ccc(F)cc4)c(-c4ccnc(NC5CCC5)c4)n32)cc1` reads 301 nM.

(Values after US7314940B2, “Jun kinase inhibitors” (Eisai Co., Ltd., priority 2001, dated 2008).)
